In patent US11512090B2, “Muscarinic acetylcholine M1 receptor antagonists” (PIPELINE THERAPEUTICS, INC., priority 2018, dated 2022):
Where two headings read alike, the source gives them in different places.

Legend:
Assay type in all cases: cell-based
human M1 receptor = target: T1, human M1 receptor (Homo sapiens, UniProt P11229); experiment: In vitro functional assay of muscarinic acetylcholine receptor activity (aequorin calcium flux, antagonist mode vs EC80 acetylcholine), M1
T1 sequence (P11229 1-460): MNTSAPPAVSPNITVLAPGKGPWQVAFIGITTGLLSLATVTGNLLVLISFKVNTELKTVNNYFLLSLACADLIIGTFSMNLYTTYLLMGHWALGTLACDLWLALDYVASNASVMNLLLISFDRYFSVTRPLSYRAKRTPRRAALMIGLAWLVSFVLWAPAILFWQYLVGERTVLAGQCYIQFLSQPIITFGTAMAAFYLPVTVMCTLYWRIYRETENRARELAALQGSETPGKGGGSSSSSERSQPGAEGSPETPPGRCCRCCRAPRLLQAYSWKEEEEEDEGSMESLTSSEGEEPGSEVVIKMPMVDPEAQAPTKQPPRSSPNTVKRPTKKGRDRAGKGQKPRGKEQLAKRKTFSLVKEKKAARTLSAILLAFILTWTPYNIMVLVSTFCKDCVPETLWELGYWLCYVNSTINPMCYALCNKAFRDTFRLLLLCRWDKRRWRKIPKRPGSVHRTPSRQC
Procedure, shortened: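 Antagonism at M1 was measured as a concentration-dependent reduction of the EC80 acetylcholine-evoked aequorin luminescence, from which IC50 was derived. Human M1 CHO-K1 aequorin cells were first loaded with 5 uM coelenterazine h for 4 h and exposed to compound for 30 min at room temperature.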

M2 = target: T2, M2 (Homo sapiens, UniProt P08172); experiment: In vitro functional assay of muscarinic acetylcholine receptor activity, M2
T2 sequence (P08172 1-466): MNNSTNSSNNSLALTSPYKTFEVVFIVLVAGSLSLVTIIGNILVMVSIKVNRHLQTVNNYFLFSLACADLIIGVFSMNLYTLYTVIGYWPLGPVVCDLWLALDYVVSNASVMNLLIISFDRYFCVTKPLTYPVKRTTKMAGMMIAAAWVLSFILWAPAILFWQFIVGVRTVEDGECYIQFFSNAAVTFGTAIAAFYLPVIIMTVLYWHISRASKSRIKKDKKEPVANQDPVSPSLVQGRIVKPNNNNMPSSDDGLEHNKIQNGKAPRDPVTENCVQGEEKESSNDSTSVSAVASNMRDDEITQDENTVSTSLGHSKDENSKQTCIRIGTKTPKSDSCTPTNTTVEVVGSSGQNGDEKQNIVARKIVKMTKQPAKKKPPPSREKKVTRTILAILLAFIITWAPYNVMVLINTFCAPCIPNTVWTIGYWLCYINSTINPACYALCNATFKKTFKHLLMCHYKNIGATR

M3 = M3 (Homo sapiens, UniProt P20309); experiment: In vitro functional assay of muscarinic acetylcholine receptor activity, M3
[1] = CHO-K1 cells stably expressing human M1 receptor with Aequorin, decrease in EC80 acetylcholine response, read-out: M1 IC50
[2] = antagonist IC50 at M2, read-out: M2 IC50
[3] = antagonist IC50 at M3, read-out: M3 IC50

Sequence of M3 (P20309 whole entry): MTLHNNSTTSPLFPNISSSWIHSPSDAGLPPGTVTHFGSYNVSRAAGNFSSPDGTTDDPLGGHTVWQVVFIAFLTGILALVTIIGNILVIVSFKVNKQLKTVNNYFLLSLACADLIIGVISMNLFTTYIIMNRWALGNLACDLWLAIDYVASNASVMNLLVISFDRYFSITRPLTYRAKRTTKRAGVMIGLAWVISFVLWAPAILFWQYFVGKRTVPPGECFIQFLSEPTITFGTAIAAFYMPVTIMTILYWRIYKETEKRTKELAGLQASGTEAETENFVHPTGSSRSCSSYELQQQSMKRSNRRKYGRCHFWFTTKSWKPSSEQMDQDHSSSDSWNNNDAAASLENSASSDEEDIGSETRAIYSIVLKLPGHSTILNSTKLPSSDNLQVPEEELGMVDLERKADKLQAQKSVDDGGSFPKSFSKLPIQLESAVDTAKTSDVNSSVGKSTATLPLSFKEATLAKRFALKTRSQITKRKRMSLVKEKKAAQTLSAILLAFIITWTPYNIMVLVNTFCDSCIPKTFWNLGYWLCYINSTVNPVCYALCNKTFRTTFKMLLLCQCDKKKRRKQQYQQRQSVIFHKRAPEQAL

IC50 (human M1 receptor; [1]) | Structure (SMILES) | IC50 (M2; [2]) | IC50 (M3; [3]) | IC50 (human M1 receptor) | IC50 (M3) | IC50 (M2)
100 to 1000 nM | O=C(CCS(=O)(=O)c1cccc2ncsc12)N1CCN(c2ccc(CO)cc2)CC1 [Example 138, 3-(1,3-benzothiazole-7-sulfonyl)-1-{4-[4-(hydroxymethyl)phenyl]piperazin-1-yl}propan-1-one] | > 10000 nM | > 10000 nM |  |  | 
 | O=C(CCNCc1c(F)ccc2nccn12)N1CC2CCC(C1)N2c1ccncc1F [Example 139, 3-[({6-fluoroimidazo[1,2-a]pyridin-5-yl}methyl)amino]-1-[8-(3-fluoropyridin-4-yl)-3,8-diazabicyclo[3.2.1]octan-3-yl]propan-1-one] | > 10000 nM | > 10000 nM | 100 to 1000 nM |  | 
< 100 nM | O=C(CCS(=O)(=O)c1cccc2ncsc12)N1CC=C(c2ccc(C(F)(F)F)cn2)CC1 [Example 140, 3-(1,3-benzothiazole-7-sulfonyl)-1-[5-(trifluoromethyl)-1′,2′,3′,6′-tetrahydro-[2,4′-bipyridin]-1′-yl]propan-1-one] | 1000 to 10000 nM | 1000 to 10000 nM |  |  | 
 | N#Cc1ccc(C2=CC3CCC(C2)N3C(=O)CCS(=O)(=O)c2cccc3ncsc23)nc1 (stereo not drawn) [Example 141, 6-{8-[3-(1,3-benzothiazole-7-sulfonyl)propanoyl]-8-azabicyclo[3.2.1]oct-2-en-3-yl}pyridine-3-carbonitrile] | 1000 to 10000 nM | > 10000 nM | 100 to 1000 nM |  | 
 | O=C(CCS(=O)(=O)c1cccc2nccn12)N1CC2CCC(C1)N2c1ccc(Cl)cn1 [Example 143, 1-[8-(5-chloropyridin-2-yl)-3,8-diazabicyclo[3.2.1]octan-3-yl]-3-{imidazo[1,2-a]pyridine-5-sulfonyl}propan-1-one] | 1000 to 10000 nM | 1000 to 10000 nM | < 100 nM |  | 
< 100 nM | Cc1cc(C#N)ncc1N1CCN(C(=O)CCS(=O)(=O)c2cccc3nccn23)[C@@H](C)C1 [Example 144, 5-[(3S)-4-(3-{imidazo[1,2-a]pyridine-5-sulfonyl}propanoyl)-3-methylpiperazin-1-yl]-4-methylpyridine-2-carbonitrile] | > 10000 nM | > 10000 nM |  |  | 
 | N#Cc1ccc(N2C3CCC2CN(C(=O)CCS(=O)(=O)c2cccc4ncsc24)C3)cn1 [Example 146, 5-{3-[3-(1,3-benzothiazole-7-sulfonyl)propanoyl]-3,8-diazabicyclo[3.2.1]octan-8-yl}pyridine-2-carbonitrile] | 100 to 1000 nM | 100 to 1000 nM | < 100 nM |  | 
 | O=C(CCS(=O)(=O)c1cccc2ncsc12)N1CC2CCC(C1)N2c1ccc(C(F)(F)F)cn1 [Example 147, 3-(1,3-benzothiazole-7-sulfonyl)-1-{8-[5-(trifluoromethyl)pyridin-2-yl]-3,8-diazabicyclo[3.2.1]octan-3-yl}propan-1-one] | < 100 nM | < 100 nM | < 100 nM |  | 
 | O=C(CCNCc1cccc2ncsc12)N1CC2CCC(C1)N2c1ccc(C(F)(F)F)cn1 [Example 148, 3-{[(1,3-benzothiazol-7-yl)methyl]amino}-1-{8-[5-(trifluoromethyl)pyridin-2-yl]-3,8-diazabicyclo[3.2.1]octan-3-yl}propan-1-one] | 1000 to 10000 nM | 1000 to 10000 nM | 100 to 1000 nM |  | 
< 100 nM | Cn1cnc2cccc(S(=O)(=O)CCC(=O)N3CCN(c4ccc(C(F)(F)F)cn4)CC3)c21 [Example 149, 3-[(1-methyl-1H-1,3-benzodiazol-7-yl)sulfonyl]-1-{4-[5-(trifluoromethyl)pyridin-2-yl]piperazin-1-yl}propan-1-one] | 100 to 1000 nM | 1000 to 10000 nM |  |  | 
 | N#Cc1ccc(N2C3CCC2CN(C(=O)CCNCc2cccc4nsnc24)C3)nc1 [Example 150, 6-[3-(3-{[(2,1,3-benzothiadiazol-4-yl)methyl]amino}propanoyl)-3,8-diazabicyclo[3.2.1]octan-8-yl]pyridine-3-carbonitrile] | 1000 to 10000 nM | > 10000 nM | 100 to 1000 nM |  | 
1000 to 10000 nM | Cc1cc(C#N)ncc1N1CCN(C(=O)CCNCc2c(F)ccc3nccn23)[C@@H](C)C1 [Example 151, 5-[(3S)-4-{3-[({6-fluoroimidazo[1,2-a]pyridin-5-yl}methyl)amino]propanoyl}-3-methylpiperazin-1-yl]-4-methylpyridine-2-carbonitrile] | 1000 to 10000 nM | > 10000 nM |  |  | 
 | O=C(CCNCc1c(F)ccc2nccn12)N1CC2CCC(C1)N2c1ccc(C(F)(F)F)cn1 [Example 152, 3-[({6-fluoroimidazo[1,2-a]pyridin-5-yl}methyl)amino]-1-{8-[5-(trifluoromethyl)pyridin-2-yl]-3,8-diazabicyclo[3.2.1]octan-3-yl}propan-1-one] | 1000 to 10000 nM | > 10000 nM | < 100 nM |  | 
< 100 nM | Cc1cc(C(F)(F)F)ncc1N1CCN(C(=O)CCS(=O)(=O)c2cccc3ncsc23)[C@@H](C)C1 [Example 153, 3-(1,3-benzothiazole-7-sulfonyl)-1-[(2S)-2-methyl-4-[4-methyl-6-(trifluoromethyl)pyridin-3-yl]piperazin-1-yl]propan-1-one] | 100 to 1000 nM | 100 to 1000 nM |  |  | 
 | N#Cc1ccc(N2C3COCC2CN(C(=O)CCCc2cccc4ncccc24)C3)nc1 [Example 154, 6-{7-[4-(quinolin-5-yl)butanoyl]-3-oxa-7,9-diazabicyclo[3.3.1]nonan-9-yl}pyridine-3-carbonitrile] | 1000 to 10000 nM |  | < 100 nM | 100 to 1000 nM | 
 | O=C(CCNCc1cccc2ncnn12)N1CC2CCC(C1)N2c1ccc(Br)cn1 [Example 156, 1-[8-(5-bromopyridin-2-yl)-3,8-diazabicyclo[3.2.1]octan-3-yl]-3-[({[1,2,4]triazolo[1,5-a]pyridin-5-yl}methyl)amino]propan-1-one] | 1000 to 10000 nM | 1000 to 10000 nM | 100 to 1000 nM |  | 
 | O=C(CCNCc1cccc2ncnn12)N1CC2CCC(C1)N2c1ccc(Cl)cn1 [Example 157, 1-[8-(5-chloropyridin-2-yl)-3,8-diazabicyclo[3.2.1]octan-3-yl]-3-[({[1,2,4]triazolo[1,5-a]pyridin-5-yl}methyl)amino]propan-1-one] | > 10000 nM | > 10000 nM | < 100 nM |  | 
 | N#Cc1ccc(N2C3CCC2CN(C(=O)C(F)(F)CNCc2cccc4ncsc24)C3)nc1 [Example 158, 6-[3-(3-{[(1,3-benzothiazol-7-yl)methyl]amino}-2,2-difluoropropanoyl)-3,8-diazabicyclo[3.2.1]octan-8-yl]pyridine-3-carbonitrile] |  | 1000 to 10000 nM | 100 to 1000 nM |  | 100 to 1000 nM
 | N#Cc1cc(N2C3CCC2CN(C(=O)CCNCc2cccc4ncsc24)C3)ccn1 [Example 159, 4-[3-(3-{[(1,3-benzothiazol-7-yl)methyl]amino}propanoyl)-3,8-diazabicyclo[3.2.1]octan-8-yl]pyridine-2-carbonitrile] | 1000 to 10000 nM | > 10000 nM | < 100 nM |  | 
 | N#Cc1ccc(N2CC3CCC(C2)N3C(=O)CCNCc2cccc3ncsc23)nc1 [Example 160, 6-[8-(3-{[(1,3-benzothiazol-7-yl)methyl]amino}propanoyl)-3,8-diazabicyclo[3.2.1]octan-3-yl]pyridine-3-carbonitrile] | 1000 to 10000 nM | > 10000 nM | 100 to 1000 nM |  | 
 | Cc1cc(C#N)cnc1N1CC2CCC(C1)N2C(=O)CCNCc1cccc2ncsc12 [Example 161, 6-[8-(3-{[(1,3-benzothiazol-7-yl)methyl]amino}propanoyl)-3,8-diazabicyclo[3.2.1]octan-3-yl]-5-methylpyridine-3-carbonitrile] | 1000 to 10000 nM | > 10000 nM | 100 to 1000 nM |  | 

Structure (SMILES) | IC50 (human M1 receptor; [1]) | IC50 (M2; [2]) | IC50 (M3; [3]) | IC50 (human M1 receptor) | IC50 (M3) | IC50 (M2)
N#Cc1ccc(C2CC3CCC(C2)N3C(=O)CCS(=O)(=O)c2cccc3ncsc23)nc1 (stereo not drawn) [Example 142, 6-{8-[3-(1,3-benzothiazole-7-sulfonyl)propanoyl]-8-azabicyclo[3.2.1]octan-3-yl}pyridine-3-carbonitrile] | 1000 to 10000 nM | 1000 to 10000 nM | > 10000 nM |  |  | 
N#Cc1ccc(N2C3CCC2CN(C(=O)CCNCc2cccc4ncccc24)C3)nc1 [Example 155, 6-[3-(3-{[(quinolin-5-yl)methyl]amino}propanoyl)-3,8-diazabicyclo[3.2.1]octan-8-yl]pyridine-3-carbonitrile] | 1000 to 10000 nM | > 10000 nM | > 10000 nM |  |  | 
